Measured values published in patent US8865623B2, “Herbicidally active cyclic diones and derivatives thereof, processes for their preparation, compositions, and method of controlling weeds” (Syngenta Limited, priority 2009, dated 2014).

How the values were obtained:
Assay type in all cases: in vivo
Avena fatua (AVEFA) [1] = test: Pre-emergence herbicidal activity, glasshouse pot test; settings: Avena fatua, 312 h, Rate 250 g/ha, evaluated after 13 days, read-out: Pre-emergence activity AVEFA (100=total damage to plant; 0=no damage to plant)
Procedure: (§1) Seeds of a variety of test species were sown in standard soil in pots. After cultivation for one day (pre-emergence) or after 8 days cultivation (post-emergence) under controlled conditions in a glasshouse (at 24/16° C., day/night; 14 hours light; 65% humidity), the plants were sprayed with an aqueous spray solution derived from the formulation of the technical active ingredient in acetone/water (50:50) solution containing 0.5% Tween 20 (polyoxyethelyene sorbitan monolaurate, CAS RN 9005-64-5). The test plants were then grown in a glasshouse under controlled conditions in a glasshouse (at 24/16° C., day/night; 14 hours light; 65% humidity) and watered twice daily. After 13 days for pre and post-emergence, the test was evaluated (100=total damage to plant; 0=no damage to plant).
(§2) Lolium perenne (LOLPE), Alopecurus myosuroides (ALOMY), Echinochloa crus-galli (ECHCG), and Avena fatua (AVEFA).

[2] = system: Alopecurus myosuroides (ALOMY); test: as above; settings: Alopecurus myosuroides, 312 h, Rate 250 g/ha, evaluated after 13 days, read-out: Pre-emergence activity ALOMY (100=total damage to plant; 0=no damage to plant)
Procedure: as §1, §2

Lolium perenne (LOLPE) [3] = test: as above; settings: Lolium perenne, 312 h, Rate 250 g/ha, evaluated after 13 days, read-out: Pre-emergence activity LOLPE (100=total damage to plant; 0=no damage to plant)
Procedure: as §1, §2

[4] = system: Echinochloa crus-galli (ECHCG); test: as above; settings: Echinochloa crus-galli, 312 h, Rate 250 g/ha, evaluated after 13 days, read-out: Pre-emergence activity ECHCG (100=total damage to plant; 0=no damage to plant)
Procedure: as §1, §2

Avena fatua (AVEFA) [5] = test: Post-emergence herbicidal activity, glasshouse pot test; settings: Avena fatua, 312 h, rate 250 g/ha, evaluated after 13 days, read-out: Post-emergence activity AVEFA (100=total damage to plant; 0=no damage to plant)
Procedure: as §1, §2

[6] = system: Alopecurus myosuroides (ALOMY); test: as above; settings: Alopecurus myosuroides, 312 h, rate 250 g/ha, evaluated after 13 days, read-out: Post-emergence activity ALOMY (100=total damage to plant; 0=no damage to plant)
Procedure: as §1, §2

Lolium perenne (LOLPE) [7] = test: as above; settings: Lolium perenne, 312 h, rate 250 g/ha, evaluated after 13 days, read-out: Post-emergence activity LOLPE (100=total damage to plant; 0=no damage to plant)
Procedure: as §1, §2

[8] = system: Echinochloa crus-galli (ECHCG); test: as above; settings: Echinochloa crus-galli, 312 h, rate 250 g/ha, evaluated after 13 days, read-out: Post-emergence activity ECHCG (100=total damage to plant; 0=no damage to plant)
Procedure: as §1, §2

SMILES | pest or weed control at 250 g/ha (Avena fatua (AVEFA) [1]; pre-emergence spray) | pest or weed control at 250 g/ha ([2]; pre-emergence spray) | pest or weed control at 250 g/ha (Lolium perenne (LOLPE) [3]; pre-emergence spray) | pest or weed control at 250 g/ha ([4]; pre-emergence spray) | pest or weed control at 250 g/ha (Avena fatua (AVEFA) [5]; glasshouse) | pest or weed control at 250 g/ha ([6]; glasshouse) | pest or weed control at 250 g/ha (Lolium perenne (LOLPE) [7]; glasshouse) | pest or weed control at 250 g/ha ([8]; glasshouse) | pest or weed control at 250 g/ha (Avena fatua (AVEFA) [1]; pre-emergence) | pest or weed control at 250 g/ha ([2]; pre-emergence) | pest or weed control at 250 g/ha (Lolium perenne (LOLPE) [3]; pre-emergence) | pest or weed control at 250 g/ha ([4]; pre-emergence) | pest or weed control at 250 g/ha (Avena fatua (AVEFA) [5]) | pest or weed control at 250 g/ha [6] | pest or weed control at 250 g/ha (Lolium perenne (LOLPE) [7]) | pest or weed control at 250 g/ha [8]
CCc1ccc(Oc2ccc3cc(Cl)ccc3n2)cc1C1=C(O)[C@H]2CC[C@H](C2)C1=O [Example A-260] | 0% | 80% | 90% | 90% | 100% | 90% | 80% | 90% | – | – | – | – | – | – | – | –
CCc1ccc(Oc2ccc(Cl)cc2F)cc1C1=C(O)CC2(CCOCC2)CC1=O [Example A-65] | 90% | 70% | 80% | 100% | 90% | 90% | 80% | 100% | – | – | – | – | – | – | – | –
CCc1ccc(Oc2nccc(C(F)(F)F)n2)cc1C1=C(O)C(C)(C)OC(C)(C)C1=O [Example A-108] | 40% | 40% | 70% | 80% | 70% | 60% | 50% | 100% | – | – | – | – | – | – | – | –
CCc1ccc(Oc2cc(Cl)ncn2)cc1C1=C(O)C(C)(C)OC(C)(C)C1=O [Example A-98] | 20% | 40% | 60% | 80% | 60% | 70% | 30% | 100% | – | – | – | – | – | – | – | –
CCc1ccc(Oc2ncc(C(F)(F)F)cc2Cl)cc1C1=C(O)CC2(CCOCC2)CC1=O [Example A-272] | 100% | 100% | 100% | 100% | 90% | 90% | 70% | 100% | – | – | – | – | – | – | – | –
CCc1ccc(Oc2ccc(C(F)(F)F)c(C#N)c2)cc1C1=C(O)[C@H]2CC[C@H](C2)C1=O [Example A-340] | 50% | 80% | 70% | 100% | 80% | 60% | 70% | 100% | – | – | – | – | – | – | – | –
CCc1ccc(Oc2c(F)cc(C#N)cc2F)cc1C1=C(O)C(C)(C)OC(C)(C)C1=O [Example A-166] | 20% | 20% | 10% | 40% | 20% | 30% | 20% | 60% | – | – | – | – | – | – | – | –
CCc1ccc(Oc2ccc3ccccc3n2)cc1C1=C(O)CC(C)(C)CC1=O [Example A-292] | 50% | 90% | 100% | 100% | 90% | 100% | 90% | 100% | – | – | – | – | – | – | – | –
CCc1ccc(Oc2nc3c(Cl)c(OC)ccc3s2)cc1C1=C(O)C(C)(C)OC(C)(C)C1=O [Example A-216] | 0% | 30% | 10% | 70% | 70% | 60% | 70% | 80% | – | – | – | – | – | – | – | –
CCc1ccc(Oc2cnc3cc(F)ccc3n2)cc1C1=C(O)CC(C)(C)CC1=O [Example A-298] | 100% | 100% | 100% | 100% | 100% | 100% | 100% | 100% | – | – | – | – | – | – | – | –
CCc1ccc(Oc2ncc(C(F)(F)F)cc2C(F)(F)F)cc1C1=C(O)CC2(CCOCC2)CC1=O [Example A-269] | 80% | 100% | 90% | 100% | 90% | 90% | 70% | 100% | – | – | – | – | – | – | – | –
CCc1ccc(Oc2ncc(Cl)cn2)cc1C1=C(O)CC(C)(C)CC1=O [Example A-288] | 60% | 90% | 100% | 100% | 90% | 100% | 90% | 100% | – | – | – | – | – | – | – | –
CCc1ccc(Oc2ccc(C#N)cc2C(F)(F)F)cc1C1=C(O)C(C)(C)OC(C)(C)C1=O [Example A-74] | 90% | 60% | 100% | 100% | 80% | 90% | 80% | 100% | – | – | – | – | – | – | – | –
CC1(C)OC(C)(C)C(O)=C(c2cc(Oc3nc4ccc(C(F)(F)F)cc4s3)ccc2C2CC2)C1=O [Example A-370] | – | – | – | – | – | – | – | – | 30% | 50% | 90% | 70% | 100% | 90% | 80% | 100%
CCc1ccc(Oc2ccc(Cl)cc2)cc1C1=C(O)[C@H]2CC[C@H](C2)C1=O (single isomer, unassigned) [Example A-88] | 60% | 80% | 100% | 100% | 70% | 70% | 50% | 90% | – | – | – | – | – | – | – | –
CCc1ccc(Oc2ccc(Cl)cc2F)cc1C1=C(O)[C@H]2CC[C@H](C2)C1=O (single isomer, unassigned) [Example A-89] | 80% | 80% | 100% | 100% | 90% | 90% | 60% | 100% | – | – | – | – | – | – | – | –
CCc1ccc(Oc2ccc(Br)cc2Cl)cc1C1=C(O)[C@@H]2CC[C@](C)(C1=O)C2(C)C [Example A-240] | 0% | 30% | 70% | 70% | 40% | 30% | 60% | 70% | – | – | – | – | – | – | – | –
